Drawing on patent publication US20220213061A9, “HETEROCYCLIC COMPOUNDS FOR MODULATING NR2F6” (TES Pharma S.r.l., priority 2020, published 2022), this text covers EC50 for 32 molecules.

Counter-ions that a name gives are not always drawn. Where only a bound is given, the exact number is not on record here.

The target in this assay is T1, recombinant human NR2F6 protein (Homo sapiens, UniProt P10588).
T1 sequence (P10588 1-404): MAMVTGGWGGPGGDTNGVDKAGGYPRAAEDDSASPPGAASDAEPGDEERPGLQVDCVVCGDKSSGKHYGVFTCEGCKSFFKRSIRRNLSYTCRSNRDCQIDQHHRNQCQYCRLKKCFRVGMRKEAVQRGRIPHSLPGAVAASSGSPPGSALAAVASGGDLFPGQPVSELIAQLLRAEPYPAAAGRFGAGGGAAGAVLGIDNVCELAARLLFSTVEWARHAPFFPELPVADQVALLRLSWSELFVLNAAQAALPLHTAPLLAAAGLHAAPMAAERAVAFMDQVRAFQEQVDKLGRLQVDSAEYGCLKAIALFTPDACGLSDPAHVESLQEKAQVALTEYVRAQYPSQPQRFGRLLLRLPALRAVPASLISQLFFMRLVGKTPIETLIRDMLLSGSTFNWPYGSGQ
The assay can be described thus: Biochemical NR2F6 binding assay (EnSpire label-free). The settings on record: label-free binding to immobilized purified recombinant human NR2F6; ligands 1 nM to 100 uM, 1% DMSO. Here is the method: Purified recombinant human NR2F6 protein was dissolved in immobilization buffer at pH 4.5 and then immobilized in EnSpire-LFB High-Sensitivity User-Activated Plates at the concentration of 50 μg/well plate and left in incubation for 16 h at 4° C. Wells with only immobilization buffer were used as negative control to check the protein coating efficiency. NR2F6 ligands were resuspended in DMSO at the concentration of 10 mM, then dispensed into a plate containing assay buffer at concentrations ranging from 1 nM to 100 uM using an HP-dispenser. DMSO was normalized at the 1% of volume of each well. The final readings were taken over a period of 30 minutes. The label-free responses were measured as shifts in reflected wavelength and are expressed in picometers (pm). Results were analyzed using the EnSpire label-free user interface software, and EC50 and graphs were generated using GraphPad PRISM software. In the tables below, A is <1 μM; B is 1 to 10 μM; C is 10 to 50 μM; and D is >50 μM.

As to `Cc1ccc(O[C@H]2C[C@H](NC(=O)[C@@H]3CNC[C@H]3c3ccccc3)C2)cc1` (racemic) [Compound I-115, (±)-trans-N-[trans-3-(4-Methylphenoxy)cyclobutyl]-4-phenylpyrrolidine-3-carboxamide hydrochloride], the EC50 was in the range of 1 to 10 µM. For `O=C(Nc1ccc(-c2ccccc2)cc1)[C@@H]1CNC[C@H]1c1ccccc1` (racemic) [Compound I-24, (±)-trans-N-(Biphenyl-4-yl)-4-phenylpyrrolidine-3-carboxamide hydrochloride] the value was 1 to 10 µM; for `O=C(Nc1cccc2cnccc12)[C@H]1CNC[C@@H]1c1nccs1` [Compound I-58, (3R,4R)—N-(Isoquinolin-5-yl)-4-(1,3-thiazol-2-yl)pyrrolidine-3-carboxamide dihydrochloride], above 50 µM; for `CC(=O)N1C[C@@H](C(=O)Nc2cccc(-c3cccnc3)c2)[C@H](c2ccccc2)C1` (racemic) [Compound I-55, (±)-trans-1-Acetyl-4-phenyl-N-[3-(pyridin-3-yl)phenyl]pyrrolidine-3-carboxamide], above 50 µM. As for `O=C(Nc1cccc2ccccc12)[C@H]1CNC[C@@H]1c1ccccc1` [Compound I-74, (3R,4S)—N-(Naphthalen-1-yl)-4-phenylpyrrolidine-3-carboxamide hydrochloride], the EC50 lay within 1 to 10 µM.

Turning to `O=C(Nc1cccc2cnccc12)[C@@H]1CNC[C@H]1c1ccccc1` (racemic) [Compound I-21, (±)-trans-N-(Isoquinolin-5-yl)-4-phenylpyrrolidine-3-carboxamide dihydrochloride], the EC50 lay within 1 to 10 µM.

Regarding `O=C(Nc1cccc(-c2ccccc2)c1)[C@@H]1CNC[C@H]1c1ccccc1` (racemic) [Compound I-13, (±)-trans-N-(Biphenyl-3-yl)-4-phenylpyrrolidine-3-carboxamide], the EC50 is 1 to 10 µM. For the molecule `O=C(Nc1cccc(Nc2ccccc2)c1)[C@@H]1CNC[C@H]1c1ccccc1` [Compound I-114, (3S,4R)-4-Phenyl-N-[3-(phenylamino)phenyl]pyrrolidine-3-carboxamide hydrochloride], the EC50 fell in the range of 1 to 10 µM. `S=C(Nc1cccc2cnccc12)O[C@@H]1CNC[C@@H]1c1ccccc1` (racemic) [Compound I-3, (±)-cis-O-(4-Phenylpyrrolidin-3-yl) isoquinolin-5-ylcarbamothioate]: the EC50 lay in the range of 10 to 50 µM. For the molecule `N#Cc1ccc(N2CCC(NC(=O)[C@@H]3CNC[C@H]3c3ccccc3)CC2)cc1` [Compound I-122, (3S,4R)-3-{[1-(4-Cyanophenyl)lpiperidin-4-yl]carbamoyl]}-4-phenylpyrrolidine dihydrochloride], the EC50 is below 1 µM. `O=C(Nc1cccc2cnccc12)[C@@H]1CNC[C@H]1c1cccs1` [Compound I-56, (3S,4S)—N-(Isoquinolin-5-yl)-4-(thiophen-2-yl)pyrrolidine-3-carboxamide]: the EC50 is above 50 µM.

Turning to `O=C(Nc1cccc2c(Cl)nccc12)[C@H]1CNC[C@@H]1c1ccccc1` [Compound I-83, (3R,4S)—N-(1-Chloroisoquinolin-5-yl)-4-phenylpyrrolidine-3-carboxamide dihydrochloride], the EC50 fell in the range of 1 to 10 µM. Regarding `O=C(Nc1cccc2cnccc12)[C@H]1CNC[C@@H]1c1ccc(C(F)(F)F)cc1` [Compound I-82, (3R,4S)-4-(4-Trifluorophenyl)-N-(isoquinolin-5-yl)pyrrolidine-3-carboxamide dihydrochloride], the EC50 was above 50 µM. Regarding `O=C(Nc1cccc(OC2CCOCC2)c1)[C@@H]1CNC[C@H]1c1ccccc1` (racemic) [Compound I-86, (±)-trans-N-[3-(Tetrahydro-2H-pyran-4-yloxy)phenyl]-4-phenylpyrrolidine-3-carboxamide hydrochloride], the EC50 fell in the range of 1 to 10 µM.

Consider `O=C(Nc1cccc2cnccc12)[C@@H]1CNC[C@H]1c1ccccc1` [Compound I-40, (3S,4R)—N-(Isoquinolin-5-yl)-4-phenylpyrrolidine-3-carboxamide dihydrochloride], for which the EC50 was above 50 µM. As for `CN1C[C@@H](C(=O)Nc2cccc(-c3cccnc3)c2)[C@H](c2ccccc2)C1` (racemic) [Compound I-46, (±)-trans-1-Methyl-4-phenyl-N-[3-(pyridin-3-yl)phenyl]pyrrolidine-3-carboxamide], the EC50 is above 50 µM. As for `N#Cc1ccc(Oc2cccc(NC(=O)[C@@H]3CNC[C@H]3c3ccccc3)c2)cc1` [Compound I-112, (3S,4R)—N-[3-(4-Cyanophenoxy)phenyl]-4-phenylpyrrolidine-3-carboxamide hydrochloride], the EC50 was below 1 µM. As to `O=C(N[C@H]1C[C@H](Oc2ccc(F)nc2)C1)[C@@H]1CNC[C@H]1c1ccccc1` (racemic) [Compound I-116, (±)-trans-N-{trans-3-[(6-Fluoropyridin-3-yl)oxy]cyclobutyl}-4-phenylpyrrolidine-3-carboxamide dihydrochloride], the EC50 was 10 to 50 µM.

In the case of `O=C(Nc1ccc(-c2ccc(F)nc2)cc1)[C@@H]1CNC[C@H]1c1ccccc1` [Compound I-108, (3S,4R)—N-[4-(6-Fluoropyridin-3-yl)phenyl]-4-phenylpyrrolidine-3-carboxamide dihydrochloride], the EC50 is below 1 µM. As for `O=C(Nc1cccc(Nc2cccnc2)c1)[C@H]1CNC[C@@H]1c1ccccc1` (racemic) [Compound I-106, (±)-trans-4-Phenyl-N-[3-(pyridin-3-ylamino)phenyl]pyrrolidine-3-carboxamide dihydrochloride], the EC50 was below 1 µM.

Consider `O=C(Nc1cccc(-c2cccnc2)c1)[C@@H]1CNC[C@H]1C1CCOCC1` (racemic) [Compound I-50, (±)-trans-N-[3-(Pyridin-3-yl)phenyl]-4-(tetrahydro-2H-pyran-4-yl)pyrrolidine-3-carboxamide dihydrochloride], for which the EC50 was above 50 µM. As for `c1ccc([C@H]2CNC[C@@H]2OCc2cccc3cnccc23)cc1` (racemic) [Compound I-73, 5-({[(±)-trans-4-Phenylpyrrolidin-3-yl]oxy}methyl)isoquinoline dihydrochloride], the EC50 is above 50 µM. Turning to `O=C(Nc1cccc(-c2ccc(F)nc2)c1)[C@@H]1CNC[C@H]1c1ccccc1` (racemic) [Compound I-26, (±)-trans-N-[3-(6-Fluoropyridin-3-yl)phenyl]-4-phenylpyrrolidine-3-carboxamide], the EC50 lay within 1 to 10 µM.

Turning to `O=C(N[C@H]1C[C@H](Oc2cccnc2)C1)[C@H]1CNC[C@@H]1c1ccccc1` (racemic) [Compound I-101, (±)-trans-N-[trans-3-(Pyridyn-3-yloxy)cyclobutyl]-4-phenylpyrrolidine-3-carboxamide dihydrochloride], the EC50 was in the range of 10 to 50 µM. As for `O=C(Nc1ccc(Nc2cccnc2)cc1)[C@H]1CNC[C@@H]1c1ccccc1` (racemic) [Compound I-107, (±)-trans-4-Phenyl-N-[4-(pyridin-3-ylamino)phenyl]pyrrolidine-3-carboxamide dihydrochloride], the EC50 is above 50 µM.

`O=C(Nc1cc2ccccc2cn1)[C@H]1CNC[C@@H]1c1ccccc1` [Compound I-38, (3R,4S)—N-(Isoquinolin-3-yl)-4-phenylpyrrolidine-3-carboxamide dihydrochloride]: the EC50 lay within 1 to 10 µM. In the case of `O=C(Nc1cccc2cnccc12)[C@H]1CNC[C@@H]1c1ccc(F)cc1` [Compound I-81, (3R,4S)-4-(4-Fluorophenyl)-N-(isoquinolin-5-yl)pyrrolidine-3-carboxamide dihydrochloride], the EC50 was above 50 µM. Then `O=C(Nc1csc2cnccc12)[C@H]1CNC[C@@H]1c1ccccc1` [Compound I-32, (3R,4S)-4-Phenyl-N-(thieno[2,3-c]pyridin-3-yl)pyrrolidine-3-carboxamide dihydrochloride], with 1 to 10 µM; and `O=C(Nc1cccc(Oc2ccccn2)c1)[C@H]1CNC[C@@H]1c1ccccc1` (racemic) [Compound I-99, (±)-trans-4-Phenyl-N-[3-(pyridin-2-yloxy)phenyl]pyrrolidine-3-carboxamide dihydrochloride], with above 50 µM. For the molecule `O=C(Nc1cccc(Nc2ccccc2)c1)[C@H]1CNC[C@@H]1c1ccccc1` [Compound I-113, (3R,4S)-4-Phenyl-N-[3-(phenylamino)phenyl]pyrrolidine-3-carboxamide hydrochloride], the EC50 lay in the range of 1 to 10 µM. Regarding `N#Cc1ccc(Oc2cccc(NC(=O)[C@H]3CNC[C@@H]3c3ccccc3)c2)cc1` [Compound I-111, (3R,4S)—N-[3-(4-Cyanophenoxy)phenyl]-4-phenylpyrrolidine-3-carboxamide hydrochloride], the EC50 is below 1 µM. For `O=C(Nc1cccc(-c2ccccc2)c1)[C@@H]1CNC[C@H]1c1ccccc1` [Compound I-42, (3S,4R)—N-(Biphenyl-3-yl)-4-phenylpyrrolidine-3-carboxamide hydrochloride] the value was 1 to 10 µM.
